Test results published in US10294212B2 (CURADEV PHARMA PRIVATE LTD., priority 2013, dated 2019).

Tests used:
[1] = target: Human indoleamine 2,3-dioxygenase1 (hIDO1) (Homo sapiens (Human), UniProt P14902); test: In-vitro IDO1 enzyme assay (conversion of L-tryptophan to KYN); format: biochemical; settings: read-out: IC50 (IDO1) Enz
Outline: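 His-tagged hIDO1 (10 nM, E. coli-expressed) incubated with 30 μM L-tryptophan, 20 mM ascorbate, 10 μM methylene blue and 100 μg/mL catalase in 50 mM potassium phosphate pH 6.5, 30 min at 37 °C. TCA stop, then 65 °C hydrolysis; KYN measured by HPLC-UV at 360 nm or LC/MS/MS. IC50 by nonlinear regression versus 1% DMSO control.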

[2] = target: IDO1 in HeLa cells (Homo sapiens (Human), UniProt P14902); test: HeLa cell based IDO1 assay (IFNγ-induced, KYN in supernatant)
Sequence of IDO1 in HeLa cells (P14902 whole entry): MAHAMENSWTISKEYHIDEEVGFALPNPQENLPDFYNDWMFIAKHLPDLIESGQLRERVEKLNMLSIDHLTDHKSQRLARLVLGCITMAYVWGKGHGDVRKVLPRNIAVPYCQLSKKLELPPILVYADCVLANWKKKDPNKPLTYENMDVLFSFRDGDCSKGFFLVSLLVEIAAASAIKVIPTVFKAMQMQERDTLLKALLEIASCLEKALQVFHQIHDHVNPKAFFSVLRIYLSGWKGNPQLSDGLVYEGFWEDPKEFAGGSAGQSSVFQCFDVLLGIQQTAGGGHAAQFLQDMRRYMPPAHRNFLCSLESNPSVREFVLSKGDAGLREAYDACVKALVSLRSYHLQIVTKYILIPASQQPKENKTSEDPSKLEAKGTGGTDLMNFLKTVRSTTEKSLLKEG
Outline: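 HeLa cells were induced overnight with IFNγ (50 ng/mL), washed, then exposed to compound (typically 10 μM–1 nM) in HBSS with 80 μM L-tryptophan. Supernatant was TCA-treated at 65 °C for 15 min to convert N-formylkynurenine, and KYN was measured by HPLC-UV at 360 nm. IC50 came from nonlinear regression against a 1% DMSO control.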

[3] = target: Human TDO (hTDO)-transfected CHO-K1 cells (Homo sapiens (Human), UniProt P48775); test: CHO-K1 cell based TDO assay; settings: hTDO cellular assay
Sequence of Human TDO (hTDO)-transfected CHO-K1 cells (P48775 whole entry): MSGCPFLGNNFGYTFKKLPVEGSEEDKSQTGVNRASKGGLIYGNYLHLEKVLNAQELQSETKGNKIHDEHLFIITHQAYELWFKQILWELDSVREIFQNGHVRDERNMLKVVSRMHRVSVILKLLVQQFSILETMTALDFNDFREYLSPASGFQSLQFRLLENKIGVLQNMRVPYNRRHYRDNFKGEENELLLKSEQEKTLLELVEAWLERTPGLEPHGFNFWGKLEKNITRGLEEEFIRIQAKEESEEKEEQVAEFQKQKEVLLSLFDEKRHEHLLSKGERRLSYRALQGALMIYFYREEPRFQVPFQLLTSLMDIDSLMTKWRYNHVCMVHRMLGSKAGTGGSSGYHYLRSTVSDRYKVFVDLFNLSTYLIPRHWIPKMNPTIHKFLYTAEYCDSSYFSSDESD
Outline: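 Stably hTDO-expressing CHO-K1 cells were exposed to compounds (typically 31 μM to 10 nM) in HBSS with 80 μM L-tryptophan for 2 h. TCA-treated supernatant was heated at 65° C for 15 min to convert N-formylkynurenine, then kynurenine was quantified by LC/MS/MS. IC50 came from percent inhibition versus DMSO control.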

Sequence of Human indoleamine 2,3-dioxygenase1 (hIDO1) (P14902 whole entry): as the sequence (P14902 whole entry) above

Compound | IC50 [1] [nM] | IC50 [2] [nM] | IC50 [3] [nM]
CCCCOc1cc2c(Nc3ccc(F)c(Cl)c3)c(N)oc2c(-c2ccccc2)n1 [Compound 102, 5-Butoxy-N^3-(3-chloro-4-fluorophenyl)-7-phenylfuro[2,3-c]pyridine-2,3-diamine] | > 1000 | > 1000 | > 2000
COc1ccccc1-c1nccc2c(Nc3ccc(F)c(Cl)c3)c(N)oc12 [Compound 98, N^3-(3-Chloro-4-fluorophenyl)-7-(2-methoxyphenyl)furo[2,3-c]pyridine-2,3-diamine] | < 200 | < 200 | 500 to 2000
CNC(=O)c1cc(-c2nccc3c(Nc4cccc(C(F)(F)F)c4)c(N)oc23)ccn1 [Compound 226, 4-(2-Amino-3-((3-(trifluoromethyl)phenyl)amino)furo[2,3-c]pyridin-7-yl)-N-methylpicolinamide] | < 200 | < 200 | > 2000
COc1cccc(-c2nccc3c(Nc4ccc(F)c(Cl)c4)c(N)oc23)c1 [Compound 90, N^3-(3-Chloro-4-fluorophenyl)-7-(3-methoxyphenyl)furo[2,3-c]pyridine-2,3-diamine] | < 200 | < 200 | 500 to 2000
Nc1sc2ccc(Cl)cc2c1Nc1ccc(F)c(C(F)(F)F)c1 [Compound 132, 5-Chloro-N^3-(4-fluoro-3-(trifluoromethyl)phenyl)benzo[b]thiophene-2,3-diamine] | 200 to 1000 | 200 to 1000 | > 2000
Nc1oc2cnccc2c1Nc1ccc(F)c(OC(F)(F)F)c1 [Compound 62, N^3-(4-Fluoro-3-(trifluoromethoxy)phenyl)furo[2,3-c]pyridine-2,3-diamine] | 200 to 1000 | < 200 | > 2000
Cn1cc(-c2nccc3c(Nc4ccc(F)c(Cl)c4)c(N)oc23)cn1 [Compound 148, N^3-(3-Chloro-4-fluorophenyl)-7-(1-methyl-1H-pyrazol-4-yl)furo[2,3-c]pyridine-2,3-diamine] | < 200 | < 200 | 500 to 2000
CCCCNC(=O)c1cc(-c2nccc3c(Nc4ccc(F)c(Cl)c4)c(N)oc23)ccn1 [Compound 250, 4-(2-Amino-3-((3-chloro-4-fluorophenyl)amino)furo[2,3-c]pyridin-7-yl)-N-butylpicolinamide] | < 200 | < 200 | > 2000
O=C(Nc1oc2cnccc2c1Nc1ccc(F)c(Cl)c1)OCc1ccccc1 [Compound 139, Benzyl (3-((3-chloro-4-fluorophenyl)amino)furo[2,3-c]pyridin-2-yl)carbamate] | > 1000 | > 1000 | 500 to 2000
Nc1oc2cnccc2c1Nc1cc(Cl)c(F)c(Cl)c1 [Compound 47, N^3-(3,5-Dichloro-4-fluorophenyl)furo[2,3-c]pyridine-2,3-diamine] | > 1000 | 200 to 1000 | 500 to 2000
Cc1cc(-c2nccc3c(Nc4ccccc4)c(N)oc23)ccn1 [Compound 239, 7-(2-Methylpyridin-4-yl)-N^3-phenylfuro[2,3-c]pyridine-2,3-diamine] | < 200 | < 200 | < 500
COc1cc(Nc2c(N)oc3cnccc23)ccc1Cl [Compound 9, N^3-(4-Chloro-3-methoxyphenyl)furo[2,3-c]pyridine-2,3-diamine] | > 1000 | 200 to 1000 | 500 to 2000
Nc1oc2c(N3CCOCC3)nccc2c1Nc1ccc(F)c(Cl)c1 [Compound 245, N^3-(3-Chloro-4-fluorophenyl)-7-morpholinofuro[2,3-c]pyridine-2,3-diamine] | < 200 | < 200 | 500 to 2000
Nc1oc2cnccc2c1Nc1ccc(F)cc1Br [Compound 10, N^3-(2-Bromo-4-fluorophenyl)furo[2,3-c]pyridine-2,3-diamine] | > 1000 | 200 to 1000 | > 2000
Nc1oc2cnccc2c1Nc1cccc(C(F)F)c1 [Compound 65, N^3-(3-(Difluoromethyl)phenyl)furo[2,3-c]pyridine-2,3-diamine] | < 200 | < 200 | 500 to 2000
Nc1oc2cnccc2c1Nc1ccccc1Cl [Compound 4, N^3-(2-Chlorophenyl)furo[2,3-c]pyridine-2,3-diamine] | > 1000 | < 200 | > 2000
CCCc1nccc2c(Nc3cccc(C(F)(F)F)c3)c(N)oc12 [Compound 78, 7-Propyl-N^3-(3-(trifluoromethyl)phenyl)furo[2,3-c]pyridine-2,3-diamine] | < 200 | < 200 | > 2000

Compound | IC50 [1] [nM] | IC50 [2] [nM] | IC50 [3] [nM]
Nc1sc2ccccc2c1Nc1ccc(Cl)c(C(F)(F)F)c1 [Compound 124, N^3-(4-Chloro-3-(trifluoromethyl)phenyl)benzo[b]thiophene-2,3-diamine] | < 200 | < 200 | > 2000
Nc1oc2cnccc2c1Nc1cc(Cl)ccc1Cl [Compound 55, N^3-(2,5-Dichlorophenyl)furo[2,3-c]pyridine-2,3-diamine] | > 1000 | < 200 | > 2000
COc1cc2c(Nc3ccc(F)c(Cl)c3)c(N)oc2c(-c2ccc(F)cc2)n1 [Compound 174, N^3-(3-chloro-4-fluorophenyl)-7-(4-fluorophenyl)-5-methoxyfuro[2,3-c]pyridine-2,3-diamine] | < 200 | 200 to 1000 | 500 to 2000
Nc1oc2cnc(F)cc2c1Nc1ccc(F)cc1 [Compound 228, 5-Fluoro-N^3-(4-fluorophenyl)furo[2,3-c]pyridine-2,3-diamine] | < 200 | < 200 | < 500
COc1ccccc1-c1nccc2c(Nc3ccc(F)c(F)c3)c(N)oc12 [Compound 196, N^3-(3,4-Difluorophenyl)-7-(2-methoxyphenyl)furo[2,3-c]pyridine-2,3-diamine] | 200 to 1000 | < 200 | < 500
Nc1oc2c(F)nc(F)cc2c1Nc1ccc(F)c(Cl)c1 [Compound 190, N^3-(3-Chloro-4-fluorophenyl)-5,7-difluorofuro[2,3-c]pyridine-2,3-diamine] | < 200 | < 200 | 500 to 2000
Cc1cc(-c2nc(C)cc3c(Nc4ccc(F)c(Cl)c4)c(N)oc23)ccn1 [Compound 267, N^3-(3-Chloro-4-fluorophenyl)-5-methyl-7-(2-methylpyridin-4-yl)furo[2,3-c]pyridine-2,3-diamine] | < 200 | < 200 | > 2000
Cc1cc(-c2nc(F)cc3c(Nc4ccc(F)cc4)c(N)oc23)ccn1 [Compound 241, 5-Fluoro-N^3-(4-fluorophenyl)-7-(2-methylpyridin-4-yl)furo[2,3-c]pyridine-2,3-diamine] | < 200 | < 200 | < 500
CNC(=O)c1cc(-c2nccc3c(Nc4ccc(F)c(C(F)(F)F)c4)c(N)oc23)ccn1 [Compound 227, 4-(2-amino-3-((4-fluoro-3-(trifluoromethyl)phenyl)amino)furo[2,3-c]pyridin-7-yl)-N-methylpicolinamide] | < 200 | < 200 | > 2000
CCCCCNC(=O)c1cc(-c2nccc3c(Nc4ccc(F)c(Cl)c4)c(N)oc23)ccn1 [Compound 275, 4-(2-Amino-3-((3-chloro-4-fluorophenyl)amino)furo[2,3-c]pyridin-7-yl)-N-pentylpicolinamide] | < 200 | 200 to 1000 | > 2000
Nc1oc2c(F)nccc2c1Nc1ccc(F)c(Cl)c1 [Compound 176, N^3-(3-chloro-4-fluorophenyl)-7-fluorofuro[2,3-c]pyridine-2,3-diamine] | < 200 | < 200 | < 500
Nc1oc2cnc(Cl)cc2c1Nc1ccc(F)c(Cl)c1 [Compound 177, 5-Chloro-N3-(3-chloro-4-fluorophenyl)furo[2,3-c]pyridine-2,3-diamine] | < 200 | < 200 | 500 to 2000
Nc1oc2cnc(F)cc2c1Nc1ccc(F)c(Cl)c1 [Compound 181, N^3-(3-Chloro-4-fluorophenyl)-5-fluorofuro[2,3-c]pyridine-2,3-diamine] | < 200 | < 200 | < 500
Nc1sc2ccc(Cl)cc2c1Nc1ccc(F)cc1 [Compound 131, 5-Chloro-N^3-(4-fluorophenyl)benzo[b]thiophene-2,3-diamine] | 200 to 1000 | 200 to 1000 | 500 to 2000
Nc1oc2c(-c3ccccc3)nccc2c1Nc1cccc(C(F)(F)F)c1 [Compound 82, 7-Phenyl-N^3-(3-(trifluoromethyl)phenyl)furo[2,3-c]pyridine-2,3-diamine] | < 200 | < 200 | > 2000
Nc1oc2cc([N+](=O)[O-])ccc2c1Nc1ccc(F)c(Cl)c1 [Compound 179, N^3-(3-chloro-4-fluorophenyl)-6-nitrobenzofuran-2,3-diamine] | < 200 | < 200 | 500 to 2000
2-Amino-3-((3-chloro-4-fluorophenyl)amino)furo[2,3-c]pyridine-7-carbonitrile [Compound 106] | > 1000 | > 1000 | 500 to 2000
